Results reported in patent publication US20250171426A1, “PYRIMIDINEDIONE-BASED COMPOUNDS AS AXL, C-MET, AND MER INHIBITORS AND METHODS OF USE THEREOF” (CMG Pharmaceutical Co., Ltd., priority 2022, published 2025).

Columns and labels:
Assay type in all cases: biochemical
Details in all cases: 10 μM ATP, 60 min, ADP-GLO luminescence
MER = biological target: T1, MER (Homo sapiens, UniProt Q12866); assay: Enzymatic assay (ADP-Glo kinase reaction), MER
T1 sequence (Q12866 21-999): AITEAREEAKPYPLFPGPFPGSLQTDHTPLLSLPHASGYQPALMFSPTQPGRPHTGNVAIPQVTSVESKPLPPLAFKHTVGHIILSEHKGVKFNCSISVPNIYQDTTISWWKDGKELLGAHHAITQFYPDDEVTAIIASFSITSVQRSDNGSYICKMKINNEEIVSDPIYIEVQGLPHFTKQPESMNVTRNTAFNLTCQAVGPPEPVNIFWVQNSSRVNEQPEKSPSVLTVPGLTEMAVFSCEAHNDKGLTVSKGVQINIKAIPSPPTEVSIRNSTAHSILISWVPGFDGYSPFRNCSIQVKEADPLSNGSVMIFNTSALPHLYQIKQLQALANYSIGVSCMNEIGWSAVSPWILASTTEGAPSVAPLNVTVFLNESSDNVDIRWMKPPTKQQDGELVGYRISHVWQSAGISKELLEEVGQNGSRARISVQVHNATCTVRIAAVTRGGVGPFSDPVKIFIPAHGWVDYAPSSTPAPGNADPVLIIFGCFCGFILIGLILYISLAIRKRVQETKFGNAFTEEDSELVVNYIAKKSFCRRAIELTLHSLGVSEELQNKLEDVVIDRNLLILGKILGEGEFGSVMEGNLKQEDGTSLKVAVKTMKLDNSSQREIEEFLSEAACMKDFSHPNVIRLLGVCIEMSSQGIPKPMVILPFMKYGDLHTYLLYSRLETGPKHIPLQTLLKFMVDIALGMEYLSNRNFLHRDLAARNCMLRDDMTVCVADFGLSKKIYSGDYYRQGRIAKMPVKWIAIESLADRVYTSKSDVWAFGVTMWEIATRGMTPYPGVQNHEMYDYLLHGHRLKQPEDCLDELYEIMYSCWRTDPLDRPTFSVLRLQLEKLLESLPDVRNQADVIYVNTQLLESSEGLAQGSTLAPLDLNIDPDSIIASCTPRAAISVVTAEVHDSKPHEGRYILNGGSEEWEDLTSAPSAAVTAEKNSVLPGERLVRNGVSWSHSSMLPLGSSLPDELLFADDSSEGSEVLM
How it was run: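 ADP-Glo luminescence assay of MER in tyrosine kinase buffer with 0.2 μg/μL poly(Glu4,Tyr1) substrate and 10 μM ATP. Serially diluted inhibitor reacted 60 min at room temperature. IC50 taken from luminescence after ADP-Glo and detection steps.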

c-MET = c-MET (Homo sapiens, UniProt P08581); assay: Enzymatic assay (ADP-Glo kinase reaction), c-MET
How it was run: (§1)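 For both AXL and c-MET, reactions in tyrosine kinase buffer used 0.2 μg/μL poly(Glu4,Tyr1) and 10 μM ATP with serially diluted inhibitor, 60 min at room temperature. ADP formed was read by ADP-Glo luminescence after 40 min reagent incubation.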

AXL = biological target: T2, AXL (Homo sapiens, UniProt P30530); assay: Enzymatic assay (ADP-Glo kinase reaction), AXL
T2 sequence (P30530 26-894): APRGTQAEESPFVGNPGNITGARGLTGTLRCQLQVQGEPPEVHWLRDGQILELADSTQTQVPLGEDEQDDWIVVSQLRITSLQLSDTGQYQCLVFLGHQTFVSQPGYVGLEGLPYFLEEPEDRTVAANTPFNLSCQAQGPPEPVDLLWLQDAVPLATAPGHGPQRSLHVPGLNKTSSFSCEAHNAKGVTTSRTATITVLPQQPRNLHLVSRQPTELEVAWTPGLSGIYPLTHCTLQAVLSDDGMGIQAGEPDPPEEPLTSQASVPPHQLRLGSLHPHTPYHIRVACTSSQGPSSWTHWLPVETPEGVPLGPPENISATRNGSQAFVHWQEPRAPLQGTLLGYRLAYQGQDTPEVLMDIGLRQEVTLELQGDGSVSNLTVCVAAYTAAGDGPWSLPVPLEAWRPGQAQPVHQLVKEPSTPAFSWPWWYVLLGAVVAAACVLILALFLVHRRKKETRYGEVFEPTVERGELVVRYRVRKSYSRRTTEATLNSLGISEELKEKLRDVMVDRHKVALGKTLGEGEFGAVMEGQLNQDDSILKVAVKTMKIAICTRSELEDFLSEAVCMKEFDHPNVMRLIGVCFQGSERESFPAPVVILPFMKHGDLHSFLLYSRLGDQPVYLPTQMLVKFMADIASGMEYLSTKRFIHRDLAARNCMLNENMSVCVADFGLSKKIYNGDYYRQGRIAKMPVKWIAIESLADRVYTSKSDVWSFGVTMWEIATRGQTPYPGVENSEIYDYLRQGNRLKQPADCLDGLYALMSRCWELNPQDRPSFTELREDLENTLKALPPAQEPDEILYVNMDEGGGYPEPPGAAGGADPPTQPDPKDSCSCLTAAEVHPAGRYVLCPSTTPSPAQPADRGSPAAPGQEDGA
How it was run: as §1

Sequence of c-MET (P08581 25-1390): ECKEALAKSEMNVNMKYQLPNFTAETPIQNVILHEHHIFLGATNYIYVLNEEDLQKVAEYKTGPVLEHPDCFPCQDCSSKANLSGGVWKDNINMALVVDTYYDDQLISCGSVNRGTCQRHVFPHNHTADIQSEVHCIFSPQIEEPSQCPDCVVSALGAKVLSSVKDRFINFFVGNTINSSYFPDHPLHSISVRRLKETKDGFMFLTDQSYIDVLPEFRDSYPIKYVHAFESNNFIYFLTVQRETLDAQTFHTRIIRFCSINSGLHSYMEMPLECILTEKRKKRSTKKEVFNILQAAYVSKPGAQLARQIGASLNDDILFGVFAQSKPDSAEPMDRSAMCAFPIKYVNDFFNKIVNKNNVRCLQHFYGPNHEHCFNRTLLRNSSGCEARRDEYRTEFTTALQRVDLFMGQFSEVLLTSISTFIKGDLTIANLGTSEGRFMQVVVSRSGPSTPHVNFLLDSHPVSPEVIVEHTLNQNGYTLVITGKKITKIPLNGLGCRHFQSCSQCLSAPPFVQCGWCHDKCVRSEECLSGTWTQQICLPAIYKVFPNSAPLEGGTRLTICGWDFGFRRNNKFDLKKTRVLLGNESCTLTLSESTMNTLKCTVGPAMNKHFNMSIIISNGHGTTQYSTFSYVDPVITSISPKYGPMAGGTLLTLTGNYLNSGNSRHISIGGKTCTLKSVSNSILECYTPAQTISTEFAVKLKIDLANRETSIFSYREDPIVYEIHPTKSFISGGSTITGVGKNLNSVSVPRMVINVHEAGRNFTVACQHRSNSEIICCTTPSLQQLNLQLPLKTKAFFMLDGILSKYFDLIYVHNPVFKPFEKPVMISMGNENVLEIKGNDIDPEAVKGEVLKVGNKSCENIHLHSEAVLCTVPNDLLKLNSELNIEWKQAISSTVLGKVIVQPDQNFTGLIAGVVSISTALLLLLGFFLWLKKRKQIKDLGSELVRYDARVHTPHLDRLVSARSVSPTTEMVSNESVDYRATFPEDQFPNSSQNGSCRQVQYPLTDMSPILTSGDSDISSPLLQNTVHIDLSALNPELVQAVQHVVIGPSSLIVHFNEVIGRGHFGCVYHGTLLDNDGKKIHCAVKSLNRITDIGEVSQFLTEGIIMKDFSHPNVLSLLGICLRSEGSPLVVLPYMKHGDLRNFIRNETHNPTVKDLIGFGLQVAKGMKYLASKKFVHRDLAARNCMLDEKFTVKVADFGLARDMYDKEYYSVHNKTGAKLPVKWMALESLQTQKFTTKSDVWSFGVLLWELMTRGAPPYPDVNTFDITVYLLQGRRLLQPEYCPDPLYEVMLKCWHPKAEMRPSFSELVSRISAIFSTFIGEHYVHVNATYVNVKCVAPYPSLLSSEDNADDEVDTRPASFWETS

`C=CCn1cc(C(=O)Nc2ccc(Oc3ccnc(N)c3C#CCC3CCNCC3)c(F)c2)c(=O)n(CC=C)c1=O` [Example 71, 1,3-dialyl-N-(4-(2-amino-3-(3-(piperidin-4-yl)prop-1-ynyl)pyridin-4-yloxy)-3-fluorophenyl)-2,4-dioxo-1,2,3,4-tetrahydropyrimidine-5-carboxamide] was tested, and the IC50 (MER) was less than 10 nM, the IC50 (c-MET) was less than 100 nM and the IC50 (AXL) was less than 100 nM.
In the case of `COCCN1CCC(CC#Cc2c(Oc3ccc(NC(=O)c4cn(C(C)C)c(=O)n(-c5ccc(F)cc5)c4=O)cc3F)ccnc2N)CC1` [Example 28, N-(4-(2-amino-3-(3-(1-(2-methoxyethyl)piperidin-4-yl)prop-1-ynyl)pyridin-4-yloxy)-3-fluorophenyl)-3-(4-fluorophenyl)-1-isopropyl-2,4-dioxo-1,2,3,4-tetrahydropyrimidine-5-carboxamide], the IC50 (MER) is reported as less than 10 nM, the IC50 (c-MET) is reported as less than 10 nM and the IC50 (AXL) is reported as less than 10 nM.
Work on `Cn1nc(C(=O)Nc2ccc(Oc3ccnc(N)c3C#CCN3CCOCC3)c(F)c2)c(=O)n(-c2ccc(F)cc2)c1=O` [Example 49, N-(4-(2-amino-3-(3-morpholinoprop-1-ynyl)pyridin-4-yloxy)-3-fluorophenyl)-4-(4-fluorophenyl)-2-methyl-3,5-dioxo-2,3,4,5-tetrahydro-1,2,4-triazine-6-carboxamide] yielded an IC50 (MER) of less than 100 nM, an IC50 (c-MET) of less than 1000 nM and an IC50 (AXL) of less than 100 nM.
Molecule `Nc1nccc(Oc2ccc(NC(=O)c3cn(C4CCOCC4)c(=O)n(-c4ccc(F)cc4)c3=O)cc2F)c1C#CCC1CCNCC1` [Example 59, N-(4-(2-amino-3-(3-(piperidin-4-yl)prop-1-ynyl)pyridin-4-yloxy)-3-fluorophenyl)-3-(4-fluorophenyl)-2,4-dioxo-1-(tetrahydro-2H-pyran-4-yl)-1,2,3,4-tetrahydropyrimidine-5-carboxamide] has an IC50 (MER) of less than 10 nM, an IC50 (c-MET) of less than 100 nM and an IC50 (AXL) of less than 100 nM.
`CC(C)n1cc(C(=O)Nc2ccc(Oc3ccnc(N)c3C#CCN3CCNCC3)c(F)c2)c(=O)n(-c2ccc(F)cc2)c1=O` [Example 17] gave an IC50 (MER) of less than 10 nM, an IC50 (c-MET) of less than 10 nM and an IC50 (AXL) of less than 10 nM.
`Cc1nc(Cn2cc(C(=O)Nc3ccc(Oc4ccnc(N)c4C#CCC4CCN(C)CC4)c(F)c3)c(=O)n(-c3ccc(F)cc3)c2=O)cs1` [Example 43, N-(4-((2-amino-3-(3-(1-methylpiperidin-4-yl)prop-1-yn-1-yl)pyridin-4-yl)oxy)-3-fluorophenyl)-3-(4-fluorophenyl)-1-((2-methylthiazol-4-yl)methyl)-2,4-dioxo-1,2,3,4-tetrahydropyrimidine-5-carboxamide] was tested, and the IC50 (MER) was less than 10 nM, the IC50 (c-MET) was less than 10 nM and the IC50 (AXL) was less than 10 nM.
`CN(C)C(=O)Cn1cc(C(=O)Nc2ccc(Oc3ccnc(N)c3C#CC(C)(C)N3CCOCC3)c(F)c2)c(=O)n(-c2ccc(F)cc2)c1=O` [Example 33, N-(4-((2-amino-3-(3-methyl-3-morpholinobut-1-yn-1-yl)pyridin-4-yl)oxy)-3-fluorophenyl)-1-(2-(dimethylamino)-2-oxoethyl)-3-(4-fluorophenyl)-2,4-dioxo-1,2,3,4-tetrahydropyrimidine-5-carboxamide] showed an IC50 (MER) of less than 100 nM, an IC50 (c-MET) of less than 1000 nM and an IC50 (AXL) of less than 10000 nM.
`CC(C)n1cc(C(=O)Nc2ccc(Oc3ccnc(N)c3-c3ccc(Oc4ccccc4)cc3)c(F)c2)c(=O)n(-c2ccc(F)cc2)c1=O` [Example 10] showed an IC50 (MER) of less than 10 nM, an IC50 (c-MET) of less than 10000 nM and an IC50 (AXL) of less than 100 nM.
Work on `COCCN1CCN(CC#Cc2c(Oc3ccc(NC(=O)c4cn(C(C)C)c(=O)n(-c5ccc(F)cc5)c4=O)cc3F)ccnc2N)CC1` [Example 18, N-(4-(2-amino-3-(3-(4-(2-methoxyethyl)piperazin-1-yl)prop-1-ylny)pyridin-4-yloxy)-3-fluorophenyl)-3-(4-fluorophenyl)-1-isopropyl-2,4-dioxo-1,2,3,4-tetrahydropyrimidine-5-carboxamide] yielded an IC50 (MER) of less than 10 nM, an IC50 (c-MET) of less than 10 nM and an IC50 (AXL) of less than 10 nM.
In the case of `CN1CCC(CC#Cc2c(Oc3ccc(NC(=O)c4cn(C5CCOCC5)c(=O)n(-c5ccc(F)cc5)c4=O)cc3F)ccnc2N)CC1` [Example 60, N-(4-(2-amino-3-(3-(1-methylpiperidin-4-yl)prop-1-ynyl)pyridin-4-yloxy)-3-fluorophenyl)-3-(4-fluorophenyl)-2,4-dioxo-1-(tetrahydro-2H-pyran-4-yl)-1,2,3,4-tetrahydropyrimidine-5-carboxamide], the IC50 (MER) is reported as less than 10 nM, the IC50 (c-MET) is reported as less than 100 nM and the IC50 (AXL) is reported as less than 10 nM.
`COCCN1CCN(C(=O)/C=C/c2c(Oc3ccc(NC(=O)c4cn(C(C)C)c(=O)n(-c5ccc(F)cc5)c4=O)cc3F)ccnc2N)CC1` [Example 4, (E)-N-(4-(2-amino-3-(3-(4-(2-methoxyethyl)piperazin-1-yl)-3-oxoprop-1-enyl)pyridin-4-yloxy)-3-fluorophenyl)-3-(4-fluorophenyl)-1-isopropyl-2,4-dioxo-1,2,3,4-tetrahydropyrimidine-5-carboxamide] showed an IC50 (MER) of less than 10 nM, an IC50 (c-MET) of less than 10 nM and an IC50 (AXL) of less than 10 nM.
For `CC(C)n1cc(C(=O)Nc2ccc(Oc3ccnc(N)c3/C=C/C(=O)N3CCNCC3)c(F)c2)c(=O)n(-c2ccc(F)cc2)c1=O` [Example 3, (E)-N-(4-(2-amino-3-(3-oxo-3-(piperazin-1-yl)prop-1-enyl)pyridin-4-yloxy)-3-fluorophenyl)-3-(4-fluorophenyl)-1-isopropyl-2,4-dioxo-1,2,3,4-tetrahydropyrimidine-5-carboxamide], the IC50 (MER) was less than 10 nM, the IC50 (c-MET) was less than 100 nM and the IC50 (AXL) was less than 10 nM.
With `CN1CCN(C(C)(C)C#Cc2c(Oc3ccc(NC(=O)c4cn(CC(=O)N(C)C)c(=O)n(-c5ccc(F)cc5)c4=O)cc3F)ccnc2N)CC1` [Example 36, N-(4-((2-amino-3-(3-methyl-3-(4-methylpiperazin-1-yl)but-1-yn-1-yl)pyridin-4-yl)oxy)-3-fluorophenyl)-1-(2-(dimethylamino)-2-oxoethyl)-3-(4-fluorophenyl)-2,4-dioxo-1,2,3,4-tetrahydropyrimidine-5-carboxamide] the IC50 (MER) was less than 1000 nM, the IC50 (c-MET) was less than 10000 nM and the IC50 (AXL) was less than 10000 nM.
`CC(C)(C#Cc1c(Oc2ccc(NC(=O)c3c[nH]c(=O)n(-c4ccc(F)cc4)c3=O)cc2F)ccnc1N)N1CCOCC1` [Example 50, N-(4-(2-amino-3-(3-methyl-3-morpholinobut-1-ynyl)pyridin-4-yloxy)-3-fluorophenyl)-3-(4-fluorophenyl)-2,4-dioxo-1,2,3,4-tetrahydropyrimidine-5-carboxamide] was tested, and the IC50 (MER) was less than 100 nM, the IC50 (c-MET) was less than 100 nM and the IC50 (AXL) was less than 10 nM.
Work on `Cc1nc(Cn2cc(C(=O)Nc3ccc(Oc4ccnc(N)c4C#CC(C)(C)N4CCNCC4)c(F)c3)c(=O)n(-c3ccc(F)cc3)c2=O)cs1` [Example 41, N-(4-((2-amino-3-(3-methyl-3-(piperazin-1-yl)but-1-yn-1-yl)pyridin-4-yl)oxy)-3-fluorophenyl)-3-(4-fluorophenyl)-1-((2-methylthiazol-4-yl)methyl)-2,4-dioxo-1,2,3,4-tetrahydropyrimidine-5-carboxamide] yielded an IC50 (MER) of less than 100 nM, an IC50 (c-MET) of less than 100 nM and an IC50 (AXL) of less than 100 nM.
